The source of these data is paper PMC8179358, “An explicitly designed paratope of amyloid-β prevents neuronal apoptosis in vitro and hippocampal damage in rat brain” (Chemical Science, 2020).

For assay [1], the system named is SH-SY5Y cells. The experiment in a line: Intracellular ROS (DCFH-DA). The format is cell-based, human. To be noted: Aβ40 10 μM, 24 h. The source says: Condensed or fragmented nuclear bodies characterize the distinctive nature of apoptotic cells. […] Dyshomeostasis of Ca^2+ is also responsible for the increased production of Aβ peptides, by which a degenerative feed-forward cycle is activated, resulting in accelerated apoptosis, synaptic dysfunction, and memory impairment.[49]
The release of cytosolic enzyme lactate dehydrogenase (LDH) into the culture medium indicates cell death due to the disruption of membrane integrity. Cell deathwas assessed by measuring LDH release in the culture medium by photocolorimetric kit according to the manufacturer’s protocol (Abcam, Cambridge, MA, USA). […]
Next, 50 µl culture supernatant was collected from each well and added to an assay mixture that was prepared by adding an equal amount of LDH substrate, co-factors, and dye solutions and incubated in the dark for 40mins at 37°C. […] Absorbance was measured at 490 nm with a reference filter of 660nm. […]
Generation of intracellular reactive oxygen species was measured by a spectrofluorimetric method using peroxide sensitive fluorescent probe 2′,7′-Dichlorofluorescin diacetate (DCFH-DA).11 In brief, SH-SY5Y […]
or both for 24h. […] Cells were then washed twice with PBS, and fluorescent intensity was measured by using a fluorescence microplate reader (Bio Rad, CA, USA) with an excitation filter of 490 nm and an emission filter of 520 nm.

The test system of assay [2] is SH-SY5Y cells. The experiment in a line: Intracellular Ca2+ (Fura-2AM). To be noted: Aβ40 10 μM, compared to untreated cells. The format is cell-based, human. From the text: Condensed or fragmented nuclear bodies characterize the distinctive nature of apoptotic cells. […] Dyshomeostasis of Ca^2+ is also responsible for the increased production of Aβ peptides, by which a degenerative feed-forward cycle is activated, resulting in accelerated apoptosis, synaptic dysfunction, and memory impairment.[49] […]
e. Measurement of intracellular calcium (Ca 2+)
Ca2+sensitive dye Fura-2AM was used to measure free intracellular Ca2+level in SH-SY5Y cell suspension by the previously described method.12 Following treatment with the respective drug, Fura-2 AM (Cayman, USA) at a concentration of 5 µM was added to the culture medium and incubated at 37°C for 45 min. Next, Krebs-Ringer-HEPES (KRH) buffer (135mM NaCl, 5mM KCl, 1mM MgSO4, 0.4mM KH2PO4, 1mM CaCl2, 5.5mM glucose, 20mM HEPES, pH 7.4) was used to wash each plate twice containing (1×10^6cells). Fluorescent microplate reader (FLX 800, Biotek, USA) was used to measure the fluorescence intensity with an excitation and emission spectra of […], respectively. Results are Mean±SEM of quadruplicate measurements from three separate experiments and expressed in the increase in percent relative fluorescent unit (RFU) relative to the baseline reading.
Western blot analysis was performed to measure Bax, Bcl-2, cleaved Caspase 9 and cleaved Caspase 3, pro and anti-apoptotic proteins expression. […]

Turning to “Aβ40: commercially available Aβ40 peptide”, the “ROS marker intensity, Aβ40 alone” value with SH-SY5Y cells [1] is “increased in the presence of Aβ40 compared to untreated cells”. Besides, in the assay with SH-SY5Y cells [2], the “intracellular Ca2+ level, Aβ40 alone” value is “significantly elevated intracellular Ca^2+ levels”.
